Measured values as given in patent US20150259300A1, “4-(ORTHO)-FLUOROPHENYL-5-FLUOROPYRIMIDIN-2-YL AMINES CONTAINING A SULFONE GROUP” (BAYER PHARMA AKTIENGESELLSCHAFT, priority 2012, published 2015).

How the values were obtained:
[1] = test system: HeLa cells; assay: Proliferation assay (crystal violet), HeLa; type: cell-based; settings: Homo sapiens, 96 h, 4 days, read-out: Inhibition of HeLa cell proliferation IC50
Protocol: (§1) Cultivated tumour cells (HeLa, human cervical tumour cells, ATCC CCL-2; NCI-H460, human non-small cell lung carcinoma cells, ATCC HTB-177; A2780, human ovarian carcinoma cells, ECACC #93112519; DU 145, hormone-independent human prostate carcinoma cells, ATCC HTB-81; HeLa-MaTu-ADR, multidrug-resistant human cervical carcinoma cells, EPO-GmbH Berlin; Caco-2, human colorectal carcinoma cells, ATCC HTB-37; B 16F10, mouse melanoma cells, ATCC CRL-6475) were plated at a density of 5,000 cells/well (DU145, HeLa-MaTu-ADR), 3,000 cells/well (NCI-H460, HeLa), 2,500 cells/well (A2780), 1,500 cells/well (Caco-2), or 1,000 cells/well (B16F10) in a 96-well multititer plate in 200 μL of their respective growth medium supplemented 10% fetal calf serum. After 24 hours, the cells of one plate (zero-point plate) were stained with crystal violet (see below), while the medium of the other plates was replaced by fresh culture medium (200 to which the test substances were added in various concentrations (0 μM, as well as in the range of 0.001-10 μM; the final concentration of the solvent dimethyl sulfoxide was 0.5%). The cells were incubated for 4 days in the presence of test substances. Cell proliferation was determined by staining the cells with crystal violet: the cells were fixed by adding 20 μl/measuring point of an 11% glutaric aldehyde solution for 15 minutes at room temperature. After three washing cycles of the fixed cells with water, the plates were dried at room temperature. The cells were stained by adding 100 μl/measuring point of a 0.1% crystal violet solution (pH 3.0). After three washing cycles of the stained cells with water, the plates were dried at room temperature. The dye was dissolved by adding 100 μl/measuring point of a 10% acetic acid solution. The extinction was determined by photometry at a wavelength of 595 nm. The change of cell number, in percent, was calculated by normalization of the measured values to the extinction values of the zero-point plate (=0%) and the extinction of the untreated (0 μm) cells (=100%). The IC50 values (inhibitory concentration at 50% of maximal effect) were determined by means of a 4 parameter fit.

[2] = target: T1, CDK9/CycT1 (Homo sapiens, UniProt P50750); assay: CDK9/CycT1 high ATP kinase assay (TR-FRET, Method 1b); type: biochemical; settings: 2 mM ATP
T1 construct: Recombinant full-length His-tagged human CDK9 and CycT1; His; purchased Invitrogen PV4131; host or cells: insect cells
T1 sequence (P50750 whole entry): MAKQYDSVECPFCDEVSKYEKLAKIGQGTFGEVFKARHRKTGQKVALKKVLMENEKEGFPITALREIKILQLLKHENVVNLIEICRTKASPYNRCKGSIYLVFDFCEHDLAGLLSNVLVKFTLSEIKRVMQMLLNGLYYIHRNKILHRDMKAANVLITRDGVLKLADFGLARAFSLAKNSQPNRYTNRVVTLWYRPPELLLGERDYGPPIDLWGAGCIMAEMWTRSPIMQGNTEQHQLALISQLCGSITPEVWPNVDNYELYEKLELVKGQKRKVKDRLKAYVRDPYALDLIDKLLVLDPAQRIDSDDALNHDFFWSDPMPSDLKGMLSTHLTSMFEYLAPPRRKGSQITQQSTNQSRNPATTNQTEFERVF
T1 sequence (O60563 whole entry partner): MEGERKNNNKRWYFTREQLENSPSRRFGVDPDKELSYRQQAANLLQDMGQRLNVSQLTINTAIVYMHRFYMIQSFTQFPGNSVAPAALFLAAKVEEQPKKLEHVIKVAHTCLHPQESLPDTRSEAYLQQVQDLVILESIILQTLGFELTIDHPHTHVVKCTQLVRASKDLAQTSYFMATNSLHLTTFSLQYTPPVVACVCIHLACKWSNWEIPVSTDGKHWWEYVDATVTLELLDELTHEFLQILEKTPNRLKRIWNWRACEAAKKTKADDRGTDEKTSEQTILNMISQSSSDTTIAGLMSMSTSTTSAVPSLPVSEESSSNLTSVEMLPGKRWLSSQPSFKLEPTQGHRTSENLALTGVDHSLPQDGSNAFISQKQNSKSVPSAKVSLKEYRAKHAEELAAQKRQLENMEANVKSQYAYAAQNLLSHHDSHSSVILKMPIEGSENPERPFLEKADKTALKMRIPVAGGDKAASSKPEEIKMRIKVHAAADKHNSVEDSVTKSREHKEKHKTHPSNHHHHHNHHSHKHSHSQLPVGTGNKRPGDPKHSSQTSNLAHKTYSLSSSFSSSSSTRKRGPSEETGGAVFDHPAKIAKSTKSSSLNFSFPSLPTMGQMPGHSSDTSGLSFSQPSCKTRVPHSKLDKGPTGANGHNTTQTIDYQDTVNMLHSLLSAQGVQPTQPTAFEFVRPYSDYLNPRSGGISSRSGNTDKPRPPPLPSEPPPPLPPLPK
Protocol: 1b. CDK9/CyeT1 High ATP Kinase Assay
CDK9/CycT1-inhibitory activity of compounds of the present invention at a high ATP concentration after preincubation of enzyme and test compounds was quantified employing the CDK9/CycT1 TR-FRET assay as described in the following paragraphs.
Recombinant full-length His-tagged human CDK9 and CycT1, expressed in insect cells and purified by Ni-NTA affinity chromatography, were purchase from Invitrogen (Cat. No PV4131). As substrate for the kinase reaction biotinylated peptide biotin-Ttds-YISPLKSPYKISEG (C-terminus in amid form) was used which can be purchased e.g. form the company JERINI peptide technologies (Berlin, Germany).
For the assay 50 nl of a 100 fold concentrated solution of the test compound in DMSO was pipetted into a black low volume 384 well microtiter plate (Greiner Bio-One, Frickenhausen, Germany), 2 μl of a solution of CDK9/CycT1 in aqueous assay buffer [50 mM Tris/HCl pH 8.0, 10 mM MgCl2, 1.0 mM dithiothreitol, 0.1 mM sodium ortho-vanadate, 0.01% (v/v) Nonidet-P40 (Sigma)] were added and the mixture was incubated for […] at 22° C. to allow pre-binding of the test compounds to the enzyme before the start of the kinase reaction. Then the kinase reaction was started by the addition of 3 μl of a solution of adenosine-tri-phosphate (ATP, 3.3 mM=>final conc. in the 5 μl assay volume is 2 mM) and substrate (1.67 μM=>final conc. in the 5 μl assay volume is 1 μM) in assay buffer and the resulting mixture was incubated for a reaction time of […] at 22° C. The concentration of CDK9/CycT1 was adjusted depending of the activity of the enzyme lot and was chosen appropriate to have the assay in the linear range, typical concentrations were in the range of 0.5 ng/ml. The reaction was stopped by the addition of 5 μl of a solution of TR-FRET detection reagents ([…] streptavidine-XL665 [Cisbio Bioassays, Codolet, France] and 1 nM anti-RB(pSer807/pSer811)-antibody from BD Pharmingen [#558389] and 1.2 nM LANCE EU-W1024 labeled anti-mouse IgG antibody [Perkin-Elmer, product no. AD0077]) in an aqueous EDTA-solution (100 mM EDTA, 0.2% (w/v) bovine serum albumin in 100 mM HEPES/NaOH pH 7.0).
The resulting mixture was incubated 1 h at 22° C. to allow the formation of complex between the phosphorylated biotinylated peptide and the detection reagents. Subsequently the amount of phosphorylated substrate was evaluated by measurement of the resonance energy transfer from the Eu-chelate to the streptavidine-XL. Therefore, the fluorescence emissions at 620 nm and 665 nm after excitation at 350 nm was measured in a HTRF reader, e.g. a Rubystar (BMG Labtechnologies, Offenburg, Germany) or a Viewlux (Perkin-Elmer). The ratio of the emissions at 665 nm and at […] was taken as the measure for the amount of phosphorylated substrate. The data were normalised (enzyme reaction without inhibitor=0% inhibition, all other assay components but no enzyme=100% inhibition).

[3] = test system: B16F10 cells; assay: Proliferation assay (crystal violet), B16F10; type: cell-based; settings: Mus musculus, B16-F10, 96 h; B16F10, 4 days; read-out: Inhibition of B16F10 cell proliferation IC50
Protocol: as §1, with “After three washing cycles of the fixed cells with water, the plates were dried at room temperature. The cells were stained by adding 100 μl/measuring point of a 0.1% crystal violet solution (pH 3.0). After three washing cycles of the stained cells with water, the plates were dried at room temperature. The dye was dissolved by adding 100 μl/measuring point of a 10% acetic acid solution. The extinction was determined by photometry at a wavelength of 595 nm. The change of cell number, in percent, was calculated by normalization of the measured values to the extinction values of the zero-point plate (=0%) and the extinction of the untreated (0 μm) cells (=100%). The IC50 values (inhibitory concentration at 50% of maximal effect) were determined by means of a 4 parameter fit.” left out

[4] = test system: HeLa-MaTu-ADR cells; assay: Proliferation assay (crystal violet), HeLa-MaTu-ADR; type: cell-based; settings: Homo sapiens, 96 h, 4 days, read-out: Inhibition of HeLa-MaTu-ADR cell proliferation IC50
Protocol: as §1, with “After three washing cycles of the fixed cells with water, the plates were dried at room temperature. The cells were stained by adding 100 μl/measuring point of a 0.1% crystal violet solution (pH 3.0). After three washing cycles of the stained cells with water, the plates were dried at room temperature. The dye was dissolved by adding 100 μl/measuring point of a 10% acetic acid solution. The extinction was determined by photometry at a wavelength of 595 nm. The change of cell number, in percent, was calculated by normalization of the measured values to the extinction values of the zero-point plate (=0%) and the extinction of the untreated (0 μm) cells (=100%). The IC50 values (inhibitory concentration at 50% of maximal effect) were determined by means of a 4 parameter fit.” left out

[5] = test system: DU145 cells; assay: Proliferation assay (crystal violet), DU145; type: cell-based; settings: Homo sapiens, DU-145, 96 h; DU145, 4 days; read-out: Inhibition of DU145 cell proliferation IC50
Protocol: as §1, with “After three washing cycles of the fixed cells with water, the plates were dried at room temperature. The cells were stained by adding 100 μl/measuring point of a 0.1% crystal violet solution (pH 3.0). After three washing cycles of the stained cells with water, the plates were dried at room temperature. The dye was dissolved by adding 100 μl/measuring point of a 10% acetic acid solution. The extinction was determined by photometry at a wavelength of 595 nm. The change of cell number, in percent, was calculated by normalization of the measured values to the extinction values of the zero-point plate (=0%) and the extinction of the untreated (0 μm) cells (=100%). The IC50 values (inhibitory concentration at 50% of maximal effect) were determined by means of a 4 parameter fit.” left out

[6] = test system: NCI-H460 cells; assay: Proliferation assay (crystal violet), NCI-H460; type: cell-based; settings: Homo sapiens, 96 h; NCI-H460, 4 days; read-out: Inhibition of H460 cell proliferation IC50
Protocol: as §1, with “After three washing cycles of the fixed cells with water, the plates were dried at room temperature. The cells were stained by adding 100 μl/measuring point of a 0.1% crystal violet solution (pH 3.0). After three washing cycles of the stained cells with water, the plates were dried at room temperature. The dye was dissolved by adding 100 μl/measuring point of a 10% acetic acid solution. The extinction was determined by photometry at a wavelength of 595 nm. The change of cell number, in percent, was calculated by normalization of the measured values to the extinction values of the zero-point plate (=0%) and the extinction of the untreated (0 μm) cells (=100%). The IC50 values (inhibitory concentration at 50% of maximal effect) were determined by means of a 4 parameter fit.” left out

[7] = test system: Caco-2 cells; assay: Proliferation assay (crystal violet), Caco-2; type: cell-based; settings: Homo sapiens, 96 h; Caco-2, 4 days; read-out: Inhibition of Caco-2 cell proliferation IC50
Protocol: as §1, with “After three washing cycles of the fixed cells with water, the plates were dried at room temperature. The cells were stained by adding 100 μl/measuring point of a 0.1% crystal violet solution (pH 3.0). After three washing cycles of the stained cells with water, the plates were dried at room temperature. The dye was dissolved by adding 100 μl/measuring point of a 10% acetic acid solution. The extinction was determined by photometry at a wavelength of 595 nm. The change of cell number, in percent, was calculated by normalization of the measured values to the extinction values of the zero-point plate (=0%) and the extinction of the untreated (0 μm) cells (=100%). The IC50 values (inhibitory concentration at 50% of maximal effect) were determined by means of a 4 parameter fit.” left out

SMILES	IC50 [1] [nM]	IC50 [2] [nM]	further results
CC(C)(C)S(=O)(=O)Cc1cccc(Nc2ncc(F)c(-c3ccc(F)cc3F)n2)c1 [Example 3, N-{3-[(tert-Butylsulfonyl)methyl]phenyl}-4-(2,4-difluorophenyl)-5-fluoropyrimidin-2-amine]	3000	14500	
COCCS(=O)(=O)Cc1cccc(Nc2ncc(F)c(-c3ccc(F)cc3F)n2)c1 [Example 4, 4-(2,4-Difluorophenyl)-5-fluoro-N-(3-{[(2-methoxyethyl)sulfonyl]methyl}phenyl)pyrimidin-2-amine]		2260	
CS(=O)(=O)Cc1cc(F)cc(Nc2ncc(F)c(-c3ccc(F)cc3F)n2)c1 [Example 10, 4-(2,4-Difluorophenyl)-5-fluoro-N-{3-fluoro-5-[(methylsulfonyl)methyl]phenyl}pyrimidin-2-amine]	3000	2280	
CS(=O)(=O)Cc1cc(F)cc(Nc2ncc(F)c(-c3cc(F)c(F)cc3F)n2)c1 [Example 11, 5-Fluoro-N-{3-fluoro-5-[(methylsulfonyl)methyl]phenyl}-4-(2,4,5-trifluorophenyl)pyrimidin-2-amine]	2960	> 20000	
CCCS(=O)(=O)Cc1cc(F)cc(Nc2ncc(F)c(-c3ccc(F)cc3F)n2)c1 [Example 13, 4-(2,4-Difluorophenyl)-5-fluoro-N-{3-fluoro-5-[(propylsulfonyl)methyl]phenyl}pyrimidin-2-amine]	3000	2280	

Further lines, with some results ahead:

IC50 [1] [nM]	IC50 [2] [nM]	SMILES	further results
3000	2260	CC(C)S(=O)(=O)Cc1cccc(Nc2ncc(F)c(-c3ccc(F)cc3F)n2)c1 [Example 2, 4-(2,4-Difluorophenyl)-5-fluoro-N-{3-[(propan-2-ylsulfonyl)methyl]phenyl}pyrimidin-2-amine]	
	858	CS(=O)(=O)Cc1cccc(Nc2ncc(F)c(-c3ccc(F)cc3F)n2)c1 [Example 5, 4-(2,4-Difluorophenyl)-5-fluoro-N-{3-[(methylsulfonyl)methyl]phenyl}pyrimidin-2-amine]	
617	99	CS(=O)(=O)Cc1cc(Nc2ncc(F)c(-c3ccc(F)cc3F)n2)cc(S(F)(F)(F)(F)F)c1 [Example 6, 4-(2,4-Difluorophenyl)-5-fluoro-N-{3-[(methylsulfonyl)methyl]-5-(pentafluoro-λ^6-sulfanyl)phenyl}pyrimidin-2-amine]	IC50 [3]: 951 nM; IC50 [4]: 220 nM; IC50 [5]: 352 nM; IC50 [6]: 386 nM; IC50 [7]: 382 nM
3000	904	CCCS(=O)(=O)Cc1cccc(Nc2ncc(F)c(-c3ccc(F)cc3F)n2)c1 [Example 8, 4-(2,4-difluorophenyl)-5-fluoro-N-{3-[(propylsulfonyl)methyl]phenyl}pyrimidin-2-amine]	
3000	330	O=S(=O)(Cc1cccc(Nc2ncc(F)c(-c3ccc(F)cc3F)n2)c1)C1CC1 [Example 9, N-{3-[(Cyclopropylsulfonyl)methyl]phenyl}-4-(2,4-difluorophenyl)-5-fluoropyrimidin-2-amine]	
1000	271	CS(=O)(=O)Cc1cc(F)cc(Nc2ncc(F)c(-c3ccc(F)c(F)c3F)n2)c1 [Example 12, 5-fluoro-N-{3-fluoro-5-[(methylsulfonyl)methyl]phenyl}-4-(2,3,4-trifluorophenyl)pyrimidin-2-amine]	
